These results are taken from patent US20020045242A1, “Culture medium for culturing Lactobacillus clearans, and method for preserving said strain” (priority 1999, published 2002).

Read-outs that look alike come from different tables or passages of the source.

Data set [1] relates to Lactobacillus clearans. As to the kind of experiment: Viability of Lactobacillus clearans during lyophilization with preservatives. It counts as cell-based. The conditions noted are these: viability class. As for the experimental part: (§1) Here, alfalfa juice and clover juice refer to liquids which are made by adding 10-fold water to alfalfa grass or clover grass to make a juice, these being used as alfalfa juice or clover juice, respectively. The amounts in which the preservatives are added are expressed in terms of the weight ratio of the preservative relative to the weight of the viable cells. […] The viability of Lactobacillus clearans is expressed as a percentage, where 100% is the viable cell count immediately after lyophilization. The viability during lyophilization is indicated as concentric circles when the viability is more than 90%, as two concentric circles to one circle when the rate is 80 to 90%, as one circle when the rate is 60 to 80%, as a square when the rate is 40 to 60%, as a triangle when the rate is 20 to 40%, and as an “x” when the rate is less than 20%.
(§2) Here, the amounts in which the preservatives were added are expressed as the weight ratio of the preservative relative to the viable cell weight. […] The viability of Lactobacillus clearans during lyophilization is indicated as two concentric circles when the viability is more than 90%, as two concentric circles to one circle when the rate is 80 to 90%, as one circle when the rate is 60 to 80%, as a square when the rate is 40 to 60%, as a triangle when the rate is 20 to 40%, and as an “x” when the rate is less than 20%.

Data set [2] relates to Lactobacillus clearans. As to the kind of experiment: Changes in titer of Lactobacillus clearans during storage with preservatives. It counts as cell-based. The procedure:
as §1, §2

Data set [3] concerns Lactobacillus clearans. As to the kind of experiment: Viability of Lactobacillus clearans during storage with preservatives. The procedure: as §1, §2
Data set [4] relates to Lactobacillus clearans. As to the kind of experiment: Effect of substances added during subculture on titer of Lactobacillus clearans. It counts as cell-based. As to conditions: added to medium during subculture. An excerpt:
The most important amino acids constituting the bacterial cells or enzymes were studied by type for their effects on Lactobacillus clearans.
We looked for substances capable of such enhancement or potentiation and conducted extensive- study.

The mark [5] stands for this setting: protein-amino acid-based preservative used alone.
[6] abbreviates: protein-amino acid-based preservative.
The mark [7] stands for this setting: Lactobacillus clearans, 3 months.
Where [8] appears, read: Lactobacillus clearans, 6 months.
The mark [9] stands for this setting: Lactobacillus clearans, 12 months.
Setting [10] is: saccharides and animal-based protein·vitamin·mineral complex preservative used alone.
Where [11] appears, read: saccharides and animal-based complex preservative.

Regarding `NCCCC(=O)O`, the Results during lyophilization result in the data set with Lactobacillus clearans [1] (setting [5]) is “□ (a square when the rate is 40 to 60%)”. Moreover, in the data set with Lactobacillus clearans [2] (setting [6]), the “Changes over time during storage, Changes in titer” value (from here on “Changes … in titer”) was “±”. In addition, the “Changes over time during storage, Viability (%) 3 months” value (shortened to “Changes … (%) 3 months”) in the data set on Lactobacillus clearans [3] (setting [7]) is recorded as 65%. Further, in the data set with Lactobacillus clearans [3] (setting [8]), the “Changes over time during storage, Viability (%) 6 months” value (“Changes … (%) 6 months” below) came to 45%. For the same molecule, the “Changes over time during storage, Viability (%) 12 months” value (from here on “Changes … (%) 12 months”) in the data set with Lactobacillus clearans [3] (setting [9]) worked out at 25%.

Turning to `C[C@H](N)C(=O)O` [Alanine], in the data set on Lactobacillus clearans [1] (setting [5]), the Results during lyophilization entry was “Δ (a triangle when the rate is 20 to 40%)”. Moreover, the “Changes … in titer” value in the data set with Lactobacillus clearans [2] (setting [6]) was “−”. For the same molecule, the “Changes … (%) 3 months” value with Lactobacillus clearans [3] (setting [7]) amounted to 30%. The “Changes … (%) 6 months” value in the data set with Lactobacillus clearans [3] (setting [8]) is recorded as 15%. In the data set with Lactobacillus clearans [3] (setting [9]), the “Changes … (%) 12 months” value was 5%.

As to `N=C(N)NCCC[C@H](N)C(=O)O` [Arginine], in the data set on Lactobacillus clearans [1] (setting [5]), the Results during lyophilization result is on record as “Δ (a triangle when the rate is 20 to 40%)”. The “Changes … in titer” value with Lactobacillus clearans [2] was “−”. Besides, the “Changes … (%) 3 months” value in the data set on Lactobacillus clearans [3] (setting [7]) stood at 20%. In addition, the “Changes … (%) 6 months” value in the data set on Lactobacillus clearans [3] (setting [8]) is recorded as 5%. For the same molecule, the “Changes … (%) 12 months” value in the data set with Lactobacillus clearans [3] (setting [9]) was found to be 2%.

Regarding `NC(=O)C[C@H](N)C(=O)O` [Asparagine], the Results during lyophilization result in the data set with Lactobacillus clearans [1] (setting [5]) is on record as “□ (a square when the rate is 40 to 60%)”. Also, the “Changes … in titer” value in the data set on Lactobacillus clearans [2] (setting [6]) was “±”. Further, the “Changes … (%) 3 months” value in the data set with Lactobacillus clearans [3] (setting [7]) is given as 55%. Moreover, in the data set on Lactobacillus clearans [3] (setting [8]), the “Changes … (%) 6 months” value was found to be 30%. The “Changes … (%) 12 months” value in the data set on Lactobacillus clearans [3] (setting [9]) is 15%.

Regarding `NCC(=O)O` [Glycine], in the data set on Lactobacillus clearans [1] (setting [5]), the Results during lyophilization result is on record as “Δ (a triangle when the rate is 20 to 40%)”. Besides, in the data set with Lactobacillus clearans [2] (setting [6]), the “Changes … in titer” value was “−”. Moreover, in the data set on Lactobacillus clearans [3] (setting [7]), the “Changes … (%) 3 months” value was 25%. Moreover, the “Changes … (%) 6 months” value in the data set with Lactobacillus clearans [3] (setting [8]) was found to be 10%. In addition, the “Changes … (%) 12 months” value in the data set with Lactobacillus clearans [3] (setting [9]) was 2%.

With `OC[C@H]1O[C@@H](O[C@H]2[C@H](O)[C@@H](O)C(O)O[C@@H]2CO)[C@H](O)[C@@H](O)[C@H]1O` (stereo partly drawn) [Lactose], the Results during lyophilization result in the data set with Lactobacillus clearans [1] (setting [10]) is listed as “□ (a square when the rate is 40 to 60%)”. The “Changes … in titer” value in the data set on Lactobacillus clearans [2] (setting [11]) is recorded as “±”. Besides, in the data set with Lactobacillus clearans [3] (setting [7]), the “Changes … (%) 3 months” value is 70%. Further, the “Changes … (%) 6 months” value in the data set with Lactobacillus clearans [3] (setting [8]) amounted to 50%. The “Changes … (%) 12 months” value in the data set with Lactobacillus clearans [3] (setting [9]) was 20%.

Take `CC(C)C[C@H](N)C(=O)O` [Leucine]: the Results during lyophilization entry in the data set on Lactobacillus clearans [1] (setting [5]) is given as “Δ (a triangle when the rate is 20 to 40%)”. The “Changes … in titer” value in the data set on Lactobacillus clearans [2] (setting [6]) is recorded as “−”. Also, the “Changes … (%) 3 months” value with Lactobacillus clearans [3] (setting [7]) worked out at 25%. For the same molecule, the “Changes … (%) 6 months” value with Lactobacillus clearans [3] (setting [8]) is 10%. For the same molecule, the “Changes … (%) 12 months” value in the data set on Lactobacillus clearans [3] (setting [9]) turned out to be 3%.

Turning to `N[C@@H](CCC(=O)[O-])C(=O)[O-].[Na+].[Na+]` [Sodium glutamate], the Results during lyophilization result in the data set on Lactobacillus clearans [1] (setting [5]) is “□ (a square when the rate is 40 to 60%)”. In addition, the “Changes … in titer” value in the data set on Lactobacillus clearans [2] (setting [6]) was “±”. Also, the “Changes … (%) 3 months” value in the data set with Lactobacillus clearans [3] (protein-amino acid-based preservative, 100% = viable cell count immediately after lyophilization, 3 months) amounted to 60%. In addition, the “Changes … (%) 6 months” value in the data set on Lactobacillus clearans [3] (protein-amino acid-based preservative, 100% = viable cell count immediately after lyophilization, 6 months) came to 40%. Besides, the “Changes … (%) 12 months” value in the data set with Lactobacillus clearans [3] (protein-amino acid-based preservative, 100% = viable cell count immediately after lyophilization, 12 months) was 20%.

Regarding `OC[C@H]1O[C@@](CO)(O[C@H]2O[C@H](CO)[C@@H](O)[C@H](O)[C@H]2O)[C@@H](O)[C@@H]1O` [Sucrose], the Results during lyophilization result in the data set on Lactobacillus clearans [1] (setting [10]) was “Δ (a triangle when the rate is 20 to 40%)”. Besides, the “Changes … in titer” value in the data set on Lactobacillus clearans [2] (setting [11]) is recorded as “−”. Further, the “Changes … (%) 3 months” value in the data set on Lactobacillus clearans [3] (setting [7]) was found to be 30%. The “Changes … (%) 6 months” value in the data set on Lactobacillus clearans [3] (setting [8]) amounted to 15%. Also, the “Changes … (%) 12 months” value with Lactobacillus clearans [3] (setting [9]) worked out at 5%.

As for `OC[C@H]1O[C@H](O[C@H]2O[C@H](CO)[C@@H](O)[C@H](O)[C@H]2O)[C@H](O)[C@@H](O)[C@@H]1O` [Trehalose], the Results during lyophilization result with Lactobacillus clearans [1] (setting [10]) is listed as “◯ (one circle when the rate is 60 to 80%)”. Further, the “Changes … in titer” value in the data set on Lactobacillus clearans [2] (setting [11]) is “+”. For the same molecule, in the data set with Lactobacillus clearans [3] (saccharides and animal-based complex preservative, 100% = viable cell count immediately after lyophilization, 3 months), the “Changes … (%) 3 months” value was found to be 75%. The “Changes … (%) 6 months” value with Lactobacillus clearans [3] (saccharides and animal-based complex preservative, 100% = viable cell count immediately after lyophilization, 6 months) is reported as 50%. The “Changes … (%) 12 months” value in the data set with Lactobacillus clearans [3] (saccharides and animal-based complex preservative, 100% = viable cell count immediately after lyophilization, 12 months) stood at 30%.

As for `N[C@@H](Cc1c[nH]c2ccccc12)C(=O)O` [Tryptophan], in the data set on Lactobacillus clearans [1] (setting [5]), the Results during lyophilization result was “Δ (a triangle when the rate is 20 to 40%)”. The “Changes … in titer” value with Lactobacillus clearans [2] (setting [6]) is “−”. Moreover, the “Changes … (%) 3 months” value in the data set on Lactobacillus clearans [3] (setting [7]) was 25%. In addition, the “Changes … (%) 6 months” value in the data set with Lactobacillus clearans [3] (setting [8]) is 10%. The “Changes … (%) 12 months” value in the data set with Lactobacillus clearans [3] (setting [9]) is 4%.

On to `O=C1O[C@H]([C@@H](O)CO)C(O)=C1O` [Vitamin C], for which, in the data set on Lactobacillus clearans [4], the “effect on titer of Lactobacillus clearans” value (“effect on titer” below) is “effective”.

For the molecule `N[C@@H](CC(=O)O)C(=O)O` [aspartic acid], the “effect on titer” value in the data set with Lactobacillus clearans [4] is “extremely effective”.

Regarding `Nc1nc2ncc(CNc3ccc(C(=O)N[C@@H](CCC(=O)O)C(=O)O)cc3)nc2c(=O)[nH]1` [folic acid], the “effect on titer” value in the data set on Lactobacillus clearans [4] is recorded as “effective”.

Turning to `N[C@@H](CCC(=O)O)C(=O)O` [glutamic acid], in the data set with Lactobacillus clearans [4], the “effect on titer” value was “extremely effective”.

For `[Mg+2]` [magnesium], the “effect on titer” value in the data set on Lactobacillus clearans [4] was “effective”.

In the case of `[Mn+2]` [manganese], the “effect on titer” value in the data set on Lactobacillus clearans [4] was “effective”.

Consider `[Mo]` [molybdenum], for which, in the data set on Lactobacillus clearans [4], the “effect on titer” value was “effective”.

Regarding `NC(=O)c1cccnc1` [nicotinamide], in the data set on Lactobacillus clearans [4], the “effect on titer” value was “effective”.

With `O=C(O)[C@@H]1CCCN1` [proline], the “effect on titer” value with Lactobacillus clearans [4] is “a rapid decrease in titer”.

Regarding `[Zn]` [zinc], in the data set with Lactobacillus clearans [4], the “effect on titer” value was “effective”.

Take Gelatin: in the data set with Lactobacillus clearans [1] (setting [5]), the Results during lyophilization result was “X (an “x” when the rate is less than 20%)”. For the same molecule, in the data set with Lactobacillus clearans [3], the “Changes … (%) 3 months” value was 10%; the “Changes … (%) 6 months” value was 3%; the “Changes … (%) 12 months” value is 0%.

Turning to Potato starch, in the data set with Lactobacillus clearans [3], the “Changes … (%) 3 months” value came to 30%; the “Changes … (%) 6 months” value amounted to 20%; the “Changes … (%) 12 months” value was 10%.

As for Soluble starch, in the data set on Lactobacillus clearans [3], the “Changes … (%) 3 months” value was 60%; the “Changes … (%) 6 months” value is on record as 40%; the “Changes … (%) 12 months” value came to 15%.

As for Vitamin B12, in the data set with Lactobacillus clearans [4], the “effect on titer” value is given as “effective”.

Take Vitamin E: in the data set with Lactobacillus clearans [4], the “effect on titer” value is listed as “effective”.

With Yeast extract, in the data set with Lactobacillus clearans [3], the “Changes … (%) 3 months” value is listed as 50%; the “Changes … (%) 6 months” value is 30%; the “Changes … (%) 12 months” value is on record as 20%.

Regarding calcium pantothenate, in the data set with Lactobacillus clearans [4], the “effect on titer” value was “effective”.
